Experiments:
MV4-11 = assay: Antiproliferative activity against human MV4-11 cells; format: functional, cell-based
SUD4 [1] = assay: Antiproliferative activity against over expressing […] human SUDHL4 cells; format: functional, cell-based; settings: SU-DHL-4
[2] = Antiproliferative activity against over expressing […] human WSU-DLCL2 cells; format: functional; settings: WSUDLCL2
[3] = molecular target: T1, Histone-lysine N-methyltransferase EZH2 (Homo sapiens, UniProt Q15910); assay: Inhibition of wild type EZH2 (unknown origin) by AlphaLISA assay
Target sequence in this assay (Q15910 whole entry): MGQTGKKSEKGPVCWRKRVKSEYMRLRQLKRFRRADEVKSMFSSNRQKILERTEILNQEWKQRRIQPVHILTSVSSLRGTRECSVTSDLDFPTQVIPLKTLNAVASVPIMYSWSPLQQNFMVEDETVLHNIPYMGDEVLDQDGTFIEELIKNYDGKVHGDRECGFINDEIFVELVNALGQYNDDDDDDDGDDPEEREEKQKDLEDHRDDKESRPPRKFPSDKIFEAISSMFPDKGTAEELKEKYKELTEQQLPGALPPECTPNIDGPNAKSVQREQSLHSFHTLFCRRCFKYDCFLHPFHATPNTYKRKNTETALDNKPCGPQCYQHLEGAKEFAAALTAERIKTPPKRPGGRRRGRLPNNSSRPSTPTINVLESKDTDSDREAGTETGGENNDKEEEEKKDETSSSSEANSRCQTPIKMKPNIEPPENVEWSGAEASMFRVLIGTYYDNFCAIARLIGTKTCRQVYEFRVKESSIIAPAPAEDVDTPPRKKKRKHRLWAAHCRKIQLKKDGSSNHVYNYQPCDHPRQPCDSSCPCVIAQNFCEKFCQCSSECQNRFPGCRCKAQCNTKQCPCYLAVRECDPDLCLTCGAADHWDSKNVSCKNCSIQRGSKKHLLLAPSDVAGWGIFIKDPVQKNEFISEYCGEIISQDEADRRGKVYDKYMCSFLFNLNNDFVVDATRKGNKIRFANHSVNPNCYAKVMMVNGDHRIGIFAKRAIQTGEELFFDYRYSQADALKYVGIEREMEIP

SUD4 [4] = assay: Induction of apoptosis in human SUDHL4 cells assessed as necrotic cells at 1 uM after 6 days by AnnexinV/propidium iodide staining based flow cytometry analysis (reference value: 0.737 %); format: functional
SUD4 [5] = assay: Induction of apoptosis in human SUDHL4 cells assessed as late apoptotic cells at 1 uM after 6 days by AnnexinV/propidium iodide staining based flow cytometry analysis (reference value: 2.01 %); format: functional
SUD4 [6] = assay: Induction of apoptosis in human SUDHL4 cells assessed as early apoptotic cells at 2 uM after 6 days by AnnexinV/propidium iodide staining based flow cytometry analysis (reference value: 0.061 %); format: functional
SUD4 [7] = assay: Induction of apoptosis in human SUDHL4 cells assessed as late apoptotic cells at 2 uM after 6 days by AnnexinV/propidium iodide staining based flow cytometry analysis (reference value: 2.01 %); format: functional
[8] = molecular target: T1, Histone-lysine N-methyltransferase EZH2; assay: Inhibition of EZH2 in human SUDHL4 cells assessed as reduction in H3K27 methylation measured after 6 days by western blot analysis; format: cell-based; settings: SUD4
Target sequence in this assay (Q15910 whole entry, looked up): as the sequence (Q15910 whole entry) above

SUD4 [9] = assay: Induction of apoptosis in human SUDHL4 cells assessed as early apoptotic cells at 4 uM after 6 days by AnnexinV/propidium iodide staining based flow cytometry analysis (reference value: 0.061 %); format: functional
SUD4 [10] = assay: Induction of apoptosis in human SUDHL4 cells assessed as viable cells at 1 uM after 6 days by AnnexinV/propidium iodide staining based flow cytometry analysis (reference value: 92.7 %); format: functional; settings: SU-DHL-4, 144 h, read-out: Activity
SUD4 [11] = assay: Induction of apoptosis in human SUDHL4 cells assessed as necrotic cells at 4 uM after 6 days by AnnexinV/propidium iodide staining based flow cytometry analysis (reference value: 0.737 %); format: functional
SUD4 [12] = assay: Induction of apoptosis in human SUDHL4 cells assessed as early apoptotic cells at 1 uM after 6 days by AnnexinV/propidium iodide staining based flow cytometry analysis (reference value: 0.061 %); format: functional
SUD4 [13] = assay: Induction of apoptosis in human SUDHL4 cells assessed as necrotic cells at 2 uM after 6 days by AnnexinV/propidium iodide staining based flow cytometry analysis (reference value: 0.737 %); format: functional
SUD4 [14] = assay: Induction of apoptosis in human SUDHL4 cells assessed as viable cells at 4 uM after 6 days by AnnexinV/propidium iodide staining based flow cytometry analysis (reference value: 92.7 %); format: functional; settings: SU-DHL-4, 144 h, read-out: Activity
SUD4 [15] = assay: Induction of apoptosis in human SUDHL4 cells assessed as viable cells at 2 uM after 6 days by AnnexinV/propidium iodide staining based flow cytometry analysis (reference value: 92.7 %); format: functional; settings: SU-DHL-4, 144 h, read-out: Activity
SUD4 [16] = assay: Induction of apoptosis in human SUDHL4 cells assessed as late apoptotic cells at 4 uM after 6 days by AnnexinV/propidium iodide staining based flow cytometry analysis (reference value: 2.01 %); format: functional

SMILES	IC50 (MV4-11) [µM]	IC50 (SUD4 [1]) [µM]	IC50 [2] [µM]	further results
CCN(c1cc(/C=C/c2ccc(CN3CCOCC3)cc2)cc(C(=O)NCc2c(C)c3c([nH]c2=O)CCCC3)c1C)C1CCOCC1	> 30	25.7	> 30	–
CCN(c1cc(/C=C/c2ccc(N3CCOCC3)nc2)cc(C(=O)NCc2c(C)c3c([nH]c2=O)CCCC3)c1C)C1CCOCC1	> 30	> 30	25.8	–
CCN(c1cc(/C=C/c2ccc(N3CCOCC3)nc2)cc(C(=O)NCc2c3c(c(C)[nH]c2=O)CCCC3)c1C)C1CCOCC1	> 30	21.7	12.6	–
CCN(c1cc(/C=C/c2ccc(CN3C[C@H]4C[C@@H]3CO4)c(F)c2)cc(C(=O)NCc2c(C)c3c([nH]c2=O)CCCC3)c1C)C1CCOCC1	> 30	> 30	6.18	–
CCN(c1cc(/C=C/c2ccc(CN3CCOCC3)cc2)cc(C(=O)NCc2c3c(c(C)[nH]c2=O)CCCC3)c1C)C1CCOCC1	6.41	> 30	> 30	–
CCN(c1cc(/C=C/c2ccc(CN3C[C@@H]4C[C@H]3CO4)c(F)c2)cc(C(=O)NCc2c(C)c3c([nH]c2=O)CCCC3)c1C)C1CCOCC1	24.3	10.5	4.58	–
CCN(c1cc(/C=C/c2ccc(S(=O)(=O)N3CCOCC3)cc2)cc(C(=O)NCc2c3c(c(C)[nH]c2=O)CCCC3)c1C)C1CCOCC1	–	–	> 30	–
CCN(c1cc(/C=C/c2cccc(CN3CCOCC3)c2)cc(C(=O)NCc2c(C)c3c([nH]c2=O)CCCC3)c1C)C1CCOCC1	9.23	> 30	> 30	–
CCN(c1cc(/C=C/c2ccc(CN3C[C@@H]4C[C@H]3CO4)c(F)c2)cc(C(=O)NCc2c3c(c(C)[nH]c2=O)CCCC3)c1C)C1CCOCC1	21.1	15.4	9.27	–
CCN(c1cc(/C=C/c2ccc(CN3CCN(C)CC3)cc2)cc(C(=O)NCc2c3c(c(C)[nH]c2=O)CCCC3)c1C)C1CCOCC1	> 30	5.96	2.58	–
CCN(c1cc(/C=C/c2ccc(CN3CCN(C)CC3)cc2)cc(C(=O)NCc2c(C)c3c([nH]c2=O)CCCC3)c1C)C1CCOCC1	22.6	4.31	3.11	–
CCN(c1cc(/C=C/c2ccc(CN3C[C@@H](C)O[C@@H](C)C3)cc2)cc(C(=O)NCc2c(C)c3c([nH]c2=O)CCCC3)c1C)C1CCOCC1	8.04	> 30	> 30	–
CCN(c1cc(/C=C/c2ccc(/C=C/C(=O)OC)cc2)cc(C(=O)NCc2c3c(c(C)[nH]c2=O)CCCC3)c1C)C1CCOCC1	–	–	21.2	–
CCN(c1cc(/C=C/c2ccc(CN3C[C@H]4C[C@@H]3CO4)c(F)c2)cc(C(=O)NCc2c3c(c(C)[nH]c2=O)CCCC3)c1C)C1CCOCC1	> 30	> 30	5.85	–
CCN(c1cc(-c2ccc(CN3CCN(C)CC3)cc2)cc(C(=O)NCc2c3c(c(C)[nH]c2=O)CCCC3)c1C)C1CCOCC1	> 30	1.78	1.64	–
CCN(c1cc(/C=C/c2ccc(CN3C[C@@H](C)O[C@@H](C)C3)c(F)c2)cc(C(=O)NCc2c(C)c3c([nH]c2=O)CCCC3)c1C)C1CCOCC1	12	20.4	> 30	–
CCN(c1cc(-c2ccc(CN3CCOCC3)cc2)cc(C(=O)NCc2c(C)cc(C)[nH]c2=O)c1C)C1CCOCC1 [TAZEMETOSTAT]	22.4	14.3	17.8	–
CCN(c1cc(/C=C/c2ccc(S(=O)(=O)N3CCOCC3)cc2)cc(C(=O)NCc2c(C)c3c([nH]c2=O)CCCC3)c1C)C1CCOCC1	–	–	> 30	–
CCN(c1cc(/C=C/c2ccc(CN3C[C@@H](C)O[C@@H](C)C3)cc2)cc(C(=O)NCc2c3c(c(C)[nH]c2=O)CCCC3)c1C)C1CCOCC1	> 30	> 30	> 30	–

More lines, main results first:

IC50 (MV4-11) [µM]	SMILES	IC50 (SUD4 [1]) [µM]	IC50 [2] [µM]	further results
3.87	CCN(c1cc(/C=C/c2ccc(CN3CCC4(CC3)OCCO4)cc2)cc(C(=O)NCc2c(C)c3c([nH]c2=O)CCCC3)c1C)C1CCOCC1	21.6	17.5	IC50 [3]: 0.189 µM
5.69	CCN(c1cc(/C=C/c2ccc3c(c2)NC(=O)CO3)cc(C(=O)NCc2c(C)c3c([nH]c2=O)CCCC3)c1C)C1CCOCC1	25.7	> 30	–
4.44	CCN(c1cc(/C=C/c2cccc(CN3CCOCC3)c2)cc(C(=O)NCc2c3c(c(C)[nH]c2=O)CCCC3)c1C)C1CCOCC1	> 30	> 30	–
4.56	CCN(c1cc(/C=C/c2ccc3c(c2)NC(=O)CO3)cc(C(=O)NCc2c3c(c(C)[nH]c2=O)CCCC3)c1C)C1CCOCC1	30	> 30	–
4.36	CCN(c1cc(/C=C/c2ccc(CN3C[C@@H](C)O[C@@H](C)C3)c(F)c2)cc(C(=O)NCc2c3c(c(C)[nH]c2=O)CCCC3)c1C)C1CCOCC1	> 30	27.7	–
3.98	CCN(c1cc(/C=C/c2cccc(CN(C)C)c2)cc(C(=O)NCc2c(C)c3c([nH]c2=O)CCCC3)c1C)C1CCOCC1	15.7	20.9	–
2.8	CCN(c1cc(/C=C/c2cccc(CN(C)C)c2)cc(C(=O)NCc2c3c(c(C)[nH]c2=O)CCCC3)c1C)C1CCOCC1	2.34	1.61	Activity (SUD4 [4]): 1.34%; Activity (SUD4 [5]): 36.2%; Activity (SUD4 [6]): 1.28%; Activity (SUD4 [7]): 69.1%; inhibition [8]: Dose-dependent effect; Activity (SUD4 [9]): 0.369%; viability at 1 µM (SUD4 [10]): 62.3%; Activity (SUD4 [11]): 0.824%; Activity (SUD4 [12]): 0.112%; Activity (SUD4 [13]): 4.14%; viability at 4 µM (SUD4 [14]): 5.91%; viability at 2 µM (SUD4 [15]): 25.5%; Activity (SUD4 [16]): 92.9%
3.21	CCN(c1cc(/C=C/c2ccc(CN3CCC4(CC3)OCCO4)cc2)cc(C(=O)NCc2c3c(c(C)[nH]c2=O)CCCC3)c1C)C1CCOCC1	> 30	27.7	IC50 [3]: 0.055 µM
